Source: patent publication US20150157634A1, “METHODS OF TREATING AND PREVENTING ALLOANTIBODY DRIVEN CHRONIC GRAFT VERSUS HOST DISEASE” (PHARMACYCLICS, INC., priority 2013, published 2015)

Experiments:
[1] = tested on: C57BL/6→B10.BR cGVHD model; assay: Masson trichrome staining of pulmonary collagen deposition / fibrosis in cGVHD model; type: in vivo, mouse
Method: (§1) Therapeutic allo-HSCT model: The C57BL/6→B10.BR model has been described previously (Srinivasan, M. et al. Blood 119, 1570-1580 (2012)). In brief, B10.BR recipients conditioned with 120 mg/kg/day I.P. cyclophosphamide (Cy) on days −3 and −2 and 8.3 Gy TBI (using a ^137Cesium irradiator) on day −1 were engrafted with 1×10^7 Thy1.2 depleted C57BL/6 derived bone marrow (BM) cells with (or without) 1×10^6 allogeneic splenocytes.
(§2) Therapeutic administration of ibrutinib via drinking water was conducted as previously described (Dubovsky 2013). Mice received a dose equivalent to 15 mg/Kg/day in 0.4% methylcellulose by intraperitoneal injection starting day 28 post-transplant for the C57BL/6→B10.BR model. Cyclosporine A was administered I.P. in 0.2% CMC at 10 mg/kg/day starting at day 25 for 2-weeks followed by 3× weekly (Blazar, B. R. et al. Blood 92, 3949-3959 (1998)).
Masson Trichrome staining: 6 μm cryosections were fixed for 5 minutes in acetone and stained with hematoxylin and eosin to determine pathology and with the Masson's trichrome staining kit (Sigma) for detection of collagen deposition. Histopathology scores were assigned as described (Blazar, B. R. et al. Blood 92, 3949-3959 (1998)). Collagen deposition was quantified on trichrome stained sections as a ratio of area of blue staining to area of total staining using the Adobe Photoshop CS3 analysis tool.

[2] = tested on: C57BL/6→B10.BR cGVHD model; assay: Germinal center detection in spleen (PNA staining, flow cytometry of GC B-cells); type: in vivo, mouse
Excerpt: (§3) FIG. 4 exemplifies germinal center reactions and pulmonary immunoglobulin deposition are therapeutically abated with administration of ibrutinib. A) Germinal centers were imaged by staining 6 um spleen sections with PNA conjugated to rhodamine. B) Splenocytes were purified from transplanted mice on day 60 and frequency of germinal center B cells were quantified. C) 6 μm lung sections from day 60 transplanted mice were stained with anti-mouse Ig conjugated to FITC. D) quantified with Adobe Photoshop CS3.
as §1
Therapeutic administration of ibrutinib via drinking water was conducted as previously described (Dubovsky 2013). Mice received a dose equivalent to 15 mg/Kg/day in 0.4% methylcellulose by intraperitoneal injection starting day 28 post-transplant for the C57BL/6→B10.BR model. Cyclosporine A was administered I.P. in 0.2% CMC at 10 mg/kg/day starting at day 25 for 2-weeks followed by 3× weekly (Blazar, B. R. et al. Blood 92, 3949-3959 (1998)). […]

[3] = tested on: C57BL/6→B10.BR cGVHD model; assay: Pulmonary function tests (PFTs) at day 60 in therapeutic allo-HSCT cGVHD/bronchiolitis obliterans model; type: in vivo, mouse
Method: To determine whether ibrutinib could reverse established cGVHD, a murine model of alloantibody driven multi-organ system cGVHD including bronchiolar obliterans (BO) (MHC disparate, C57BL/6→B10.BR) was utilized.
as §1, §2
Pulmonary function tests: Pulmonary function tests (PFTs) were performed on anesthetized mice using whole-body plehysmography with the Flexivent system (SCIREQ).

[4] = tested on: C57BL/6→B10.BR cGVHD model; assay: Pulmonary immunoglobulin deposition (anti-mouse Ig FITC immunofluorescence of lung sections); type: in vivo; settings: day 60 post-HSCT
Excerpt: as §3, §1, §2

[5] = Weekly body weight of cGVHD mice; type: in vivo, mouse; settings: BM, BM+S vehicle and BM+S ibrutinib groups; FIG. 3
Method: FIG. 3 exemplifies body weight of cGVHD mice in C57BL/6→B10.BR model. Bodyweight measurements for bone marrow (BM) non-cGVHD mice, BM+splenocyte (S) engrafted cGVHD irrelevant vehicle treated mice, or Ibrutinib treated BM+S engrafted mice.
as §1, §2

[6] = tested on: C57BL/6→B10.BR cGVHD model; assay: Overall survival of cGVHD mice (Kaplan Meier); type: in vivo, mouse; settings: ibrutinib cohort; FIG. 2
Method: FIG. 2 exemplifies survival of cGVHD mice in C57BL/6→B10.BR model. Kaplan Meier plot of overall survival for bone marrow (BM) non-cGVHD mice, BM+splenocyte (S) engrafted cGVHD irrelevant vehicle treated mice, or Ibrutinib treated BM+S engrafted mice.
as §1, §2

C=CC(=O)N1CCC[C@@H](n2nc(-c3ccc(Oc4ccccc4)cc3)c3c(N)ncnc32)C1 [ibrutinib, (R)-1-(3-(4-amino-3-(4-phenoxyphenyl)-1H-pyrazolo[3,4-d]pyrimidin-1-yl)piperidin-1-yl)prop-2-en-1-one]
peribronchiolar collagen fibrosis, Masson Trichrome staining of inflated pulmonary tissues ([1]; 4 mice from 3 experiments, representative images, FIG. 1D): less peribroncheolar collagen fibrosis
lung and liver fibrosis (summary statement) ([1]; C57BL/6→B10.BR cGVHD model): reversed lung and liver fibrosis
quantified trichrome staining (pulmonary fibrosis, ratio of blue area to total area) ([1]; p<0.0001, FIG. 1E): ameliorates pulmonary fibrosis caused by cGVHD
GC reactions within the spleen (peanut agglutinin staining) ([2]; compared to vehicle treated mice with active cGVHD, FIG. 4A): reduced the overall size, cellularity, and number of GC reactions
CD19+GL7+CD38lo germinal center B-cells within the spleen (flow cytometry) ([2]; day 60 post-HSCT, 8 mice per group, p=0.0222, FIG. 4B): significantly inhibited the cGVHD-induced formation germinal center B-cells
pulmonary function (summary statement) ([3]; C57BL/6→B10.BR cGVHD model): restored pulmonary function
development of BO as measured by pulmonary elastance ([3]; ibrutinib 15 mg/Kg/day from day 28 post-transplant, PFT day 60, p=0.0019, FIG. 1B): curtailed the development of BO in vivo
development of BO as measured by pulmonary compliance ([3]; ibrutinib 15 mg/Kg/day from day 28 post-transplant, PFT day 60, p=0.0071, FIG. 1C): curtailed the development of BO in vivo
development of BO as measured by pulmonary resistance ([3]; ibrutinib 15 mg/Kg/day from day 28 post-transplant, PFT day 60, p=0.0090, FIG. 1A): curtailed the development of BO in vivo
pulmonary deposition of allo-Ig (immunofluorescent microscopy) ([4]; FIG. 4C): limited pulmonary deposition of allo-Ig
quantified immunofluorescent signal of pulmonary Ig deposition ([4]; p<0.001, FIG. 4D): significant and complete ablation of pulmonary Ig deposition
mouse bodyweight, weekly evaluation [5]: little variation between groups
survival [6]: 100%
